Reference: paper PMC8032764 (Scientific Reports, 2021)
Read-outs that look alike come from different tables or passages of the source.

Legend:
Neurokinin NK3 = tested on: T1, Neurokinin NK3; experiment: Cerep binding; design: species or system human; settings: 10 μM; [3H]SR 142801; hum. recomb. (CHO)
T1 construct: purchased Eurofins Cerep

Dopamine D4.4 = tested on: T2, Dopamine D4.4; experiment: Cerep binding; design: species or system human; settings: 10 μM; [3H]spiperone; hum. recomb. (CHO)
T2 construct: host or cells: CHO

[1] = target: T3, human GABAA α1β3γ2 receptors (Homo sapiens, UniProt P14867+P18507); experiment: [3H]-flumazenil competition binding, HEK293 membranes; settings: 1 nM [3H]-flumazenil
T3 construct: expressed in transfected cells; host or cells: HEK293-EBNA, transient

Angiotensin AT1 = tested on: T4, Angiotensin AT1; experiment: Cerep binding; design: species or system human; settings: 10 μM; [125I][Sar1,Ile8]-AT-II; hum. recomb. (HEK-293)
T4 construct: purchased Eurofins Cerep

Muscarinic M5 = tested on: T5, Muscarinic M5; experiment: Cerep binding; design: species or system human; settings: 10 μM; [3H]4-DAMP; hum. recomb. (CHO)
T5 construct: host or cells: CHO

Serotonin 5-HT1A = tested on: T6, Serotonin 5-HT1A; experiment: Cerep binding; design: species or system human; settings: 10 μM; [3H]8-OH-DPAT; hum. recomb. (HEK-293)
T6 construct: purchased Eurofins Cerep

[2] = tested on: Adrenergic α1 (non-selective); experiment: Cerep binding; settings: 10 μM; [3H]prazosin; rat cerebral cortex
Plasma protein binding = type: in vitro ADME
Excerpt: Free plasma concentrations were used to estimate receptor occupancy.

Opioid μ = tested on: T7, Opioid μ; experiment: Cerep binding; design: species or system human; settings: 10 μM; [3H]DAMGO; hum. recomb. (HEK-293)
T7 construct: host or cells: HEK-293

[3] = Plasma levels, parallel dose groups of water maze; type: in vivo, rat; settings: 10 mg/kg p.o., 30 min
Procedure: Plasma samples were collected and frozen at − 80 °C for later analysis.
The calibration range was from 1.0 to 5000 ng/mL. After protein precipitation with ethanol, the sample solution was injected onto a Gemini C18 trapping column (2 × 10 mm; Phenomenex, Torrance, CA, USA) and polar endogenous compounds and salts were rinsed off. Analytical separation was performed on an Atlantis T3 column (2.1 × 50 mm) (Waters, Milford, MA, USA), using methanol/water containing 0.1% formic acid as mobile phase. A drug analogue was used as an internal standard.

male Lister Hooded rats = experiment: Diazepam-induced spatial learning impairment in the Morris water maze; type: in vivo, rat
Procedure: The current study used a modified version of the standard acquisition protocol, in which pre-trained rats had to learn to locate a new platform position during six trials on the test day, as described previously. Subjects were semi-randomly divided into treatment groups based on their performance on the last training day. A computer tracking system (HVS Image Ltd, UK) was used to analyse each rat’s swim path on-line.
Latency, pathlength and swim speed (Supplementary Fig. S2) were analysed with a one-factor ANOVA. For the probe trial, to determine whether each treatment group had learned the spatial position of the platform, within-subjects ANOVA was used to compare percent time spent in the platform quadrant with the left, right and opposite quadrants. All significant cases were followed by a post hoc Newman–Keuls test. In addition, a comparison between vehicle treated and diazepam-treated rats on the percent time spent in the platform quadrant was analysed using an unpaired t-test.

[4] = Pharmacokinetics, single intravenous dosing; type: in vivo; settings: Beagle, dog, plasma, 1.0 mg/kg i.v.
Serotonin 5-HT2B = tested on: T8, Serotonin 5-HT2B; experiment: Cerep binding; design: species or system human; settings: 10 μM; [125I](±)DOI; hum. recomb. (CHO)
T8 construct: purchased Eurofins Cerep

[5] = Pharmacokinetics, single intravenous dosing; type: in vivo, NHP, Cynomolgus macaque; settings: cynomolgus monkey, plasma, 1.0 mg/kg i.v.
Endothelin ETA = tested on: T9, Endothelin ETA; experiment: Cerep binding; design: species or system human; settings: 10 μM; [125I]endothelin-1; hum. recomb. (CHO)
T9 construct: purchased Eurofins Cerep

Adenosine A1 = tested on: T10, Adenosine A1; experiment: Cerep binding; design: species or system human; settings: 10 μM; [3H]DPCPX; hum. recomb. (CHO)
T10 construct: host or cells: CHO

Opioid κ = tested on: T11, Opioid κ; experiment: Cerep binding; design: species or system human; settings: 10 μM; [3H]U 69593; hum. recomb. (CHO)
T11 construct: host or cells: CHO

Serotonin 5-HT3 = tested on: T12, Serotonin 5-HT3; experiment: Cerep binding; design: species or system human; settings: 10 μM; [3H]BRL 43694; hum. recomb. (CHO)
T12 construct: purchased Eurofins Cerep

human α4β3γ2 = target: T13, human α4β3γ2 (Homo sapiens, UniProt P18507+P48169); experiment: [3H]-Ro 15-4513 competition binding; settings: at > 3 µM; data not shown
T13 construct: expressed in transfected cells; host or cells: HEK293-EBNA, transient
Procedure: (§1) HEK293-EBNA cells adapted to grow in suspension were transiently transfected with the plasmids containing the desired GABAA receptor subunit cDNAs at α, β, γ, 1:1:2 ratio using XtremeGENE Q2 (Cat. No. 03045595001, Roche Applied Science, RAS, Rotkreuz, Switzerland) as previously described. GABAA α1β2γ2, α2β3γ2, α3β3γ2, α4β3γ2, α5β3γ2 and α6β3γ2 receptor subtypes were expressed in this system. 48 h post transfection, the cells were harvested and washed three times with cold PBS and frozen at − 80 °C.
(§2) IC50 values were derived from the inhibition curve and Ki values were calculated as described below.

human α6β3γ2 = target: T14, human α6β3γ2 (Homo sapiens, UniProt P18507+Q16445); experiment: [3H]-Ro 15-4513 competition binding; settings: at > 3 µM; data not shown
T14 construct: expressed in transfected cells; host or cells: HEK293-EBNA, transient
Procedure: as §1, §2

Adrenergic β2 = tested on: T15, Adrenergic β2; experiment: Cerep binding; design: species or system human; settings: 10 μM; [3H](-)CGP 12177; hum. recomb. (CHO)
T15 construct: host or cells: CHO

Vasopressin V1A = tested on: T16, Vasopressin V1A; experiment: Cerep binding; design: species or system human; settings: 10 μM; [3H]AVP; hum. recomb. (CHO)
T16 construct: host or cells: CHO

[6] = 3 and 10 mg/kg p.o. + diazepam 6 mg/kg i.p.

## Cc1onc(-c2ccc(F)cc2)c1COc1ccc(C(=O)N2CCS(=O)(=O)CC2)cn1 [basmisanil]
Neurokinin NK3
  % Inhibition: -9%
Dopamine D4.4
  % Inhibition: 9%
[1]
  Ki: 1.03 ± 0.054 µM
Angiotensin AT1
  % Inhibition: 2%
Muscarinic M5
  % Inhibition: -7%
Serotonin 5-HT1A
  % Inhibition: 0%
[2]
  % Inhibition: -1%
Plasma protein binding; human, plasma, primates, including humans
  fraction unbound: 0.055
Plasma protein binding; primates, including humans
  free fraction: 5.5%
Plasma protein binding; rat, rats
  fraction unbound: 0.14
Opioid μ
  % Inhibition: 3%
[3]
  maximal plasma level: 903 ± 13 ng/mL
Male Lister Hooded rats; 10 mg/kg p.o. + diazepam 6 mg/kg i.p., 30 min before test
  probe trial, percent time spent in the previous platform quadrant: attenuated the diazepam-induced deficit
Male Lister Hooded rats; [6]
  latency and pathlength across six learning trials: did not significantly reduce the diazepam-induced increase in latency and pathlength
  swim speed: no effect on swim speed
[4]; n=3
  half-life: 9.8 ± 0.8 h
[4]; n=3, read-out: Total CL
  clearance: 2.2 ± 0.2 mL/min/kg
[4]; n=3, read-out: Vss
  Vd: 1.7 ± 0.2 L/kg
Serotonin 5-HT2B
  % Inhibition: 31%
[5]; n=3
  half-life: 4.5 ± 1.8 h
[5]; n=3, read-out: Total CL
  clearance: 3 ± 0.7 mL/min/kg
[5]; n=3, read-out: Vss
  Vd: 0.9 ± 0.6 L/kg
Endothelin ETA
  % Inhibition: 8%
Adenosine A1
  % Inhibition: 28%
Opioid κ
  % Inhibition: 13%
Serotonin 5-HT3
  % Inhibition: 8%
Human α4β3γ2
  binding: no binding
Human α6β3γ2
  binding: no binding
Adrenergic β2
  % Inhibition: 10%
Vasopressin V1A
  % Inhibition: 13%
